Changes are numbered by the printed parent chain.
Experiments:
[1] = target: T1, WT human TP receptor (Homo sapiens, UniProt P21731); assay: BRET2 measurement of Gq protein activation, WT receptor; format: cell-based; details: HEK293 cells, value ±%CV; for EC50: Gαq-Rluc8/GFP10-Gγ2/Gβ1, 2 min ligand
T1 construct: expressed in transfected cells; host or cells: HEK293
T1 sequence (P21731 1-343): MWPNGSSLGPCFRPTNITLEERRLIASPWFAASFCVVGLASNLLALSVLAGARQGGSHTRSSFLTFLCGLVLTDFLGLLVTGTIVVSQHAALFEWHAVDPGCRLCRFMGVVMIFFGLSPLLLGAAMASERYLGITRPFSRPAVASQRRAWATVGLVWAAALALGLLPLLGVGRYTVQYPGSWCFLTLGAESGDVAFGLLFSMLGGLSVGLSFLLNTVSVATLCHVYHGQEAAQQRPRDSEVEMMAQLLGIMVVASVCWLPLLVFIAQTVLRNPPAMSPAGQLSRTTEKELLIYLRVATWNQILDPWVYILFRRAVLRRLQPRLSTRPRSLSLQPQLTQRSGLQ
From the text: HEK 293 cells were co-transfected with vectors expressing the GFP^10-Gγ2, Gβ1, Gαq-Rluc8 and WT or E129V mutant of TP receptor to investigate direct G protein activation with an intramolecular bioluminescent resonance energy transfer (BRET^2) strategy. To avoid possible variations in the BRET signaling resulting from fluctuation in the relative expression levels of the energy donor and acceptor, we designed transfection conditions to maintain constant GFP^10 and Rluc8 expression and their ratios in each experimental set. Total fluorescence and luminescence were directly determined in an aliquot of the transfected cells using an Infinite F500 microplate reader (Tecan, Milan, Italy) as previously described. […] 48 hours after transfection, cells were washed once with PBS, detached, and resuspended in PBS+0.1% (w/v) glucose at room temperature. Cells were then distributed (80 µg of proteins per well) into a 96-well microplate (Wallac, Perkin Elmer, Monza, Italy) and incubated in the presence or absence of increasing concentrations of ligands for 2 min before the addition of the luciferase substrate Coelenterazine 400a (5 µM; Biotium, Hayward, CA). BRET signal between Rluc8 and GFP^10 was measured immediately after the addition of the Rluc substrate in the microplate reader. The BRET signal was calculated as the ratio of the light emitted by GFP^10 (510–540 nm) over the light emitted by Rluc8 (370–450 nm). The changes in BRET induced by the ligands were expressed as Òagonist-induced BRETÓ, obtained by subtracting the BRET signal detected in the presence of PBS by the BRET signal detected in the presence of the specific ligand.
(§1) All average results are presented as mean±S.E. When indicated, ANOVA followed by post-hoc test for multiple comparisons was performed. Data from radioligand binding were evaluated by a nonlinear, least-squares curve-fitting procedure using GraphPad Prism version 4, implemented with the n-ligand m-binding site model, as described in the LIGAND computer program. Concentration-response curves were evaluated using Prism 4, which use the four parameters logistic model as described in the ALLFIT program. Parameter errors are all expressed in percentage coefficient of variation (%CV) and calculated by simultaneous analysis of at least two different independent experiments performed in duplicate or triplicate. Parameter comparison has been performed on the base of the F test for extra sum of square principle. All curves shown are computer generated.
This recorded real time conformational changes between the α and the βγ subunits within the Gq protein, where a decrease of the BRET signal provoked by agonist-induced receptor activation is indicative of a conformational reorganization leading the Gα-Gβγ interface to open, reflects the initial event of Gq protein activation, [23] (Figure 6A).

[2] = target: T1, WT human TP receptor; assay: [3H]SQ29,548 radioligand binding (mixed-type and heterologous competition), WT receptor; details: HEK293 cells, competition vs 1 nM [3H]SQ29,548, 25°C 30 min, value ±%CV
Experimental: (§2) Receptor expression and functional activity were monitored 48 hours after transfection. […] Heterologous competition studies involved concentrations of the indicated unlabeled ligands extending from 0.1 nM to 30 µM. After 30 min incubation at 25 °C, the reaction was stopped by aspiration of the medium, cells were washed with ice-cold PBS containing 0.2% (w/v) BSA and lysed in 0.5 N NaOH. Radioactivity was measured by liquid scintillation counting. Binding data were analyzed as described in Data and Statistical Analysis. Quantification of the total labeled inositol phosphates (IP) accumulation was performed using a conventional gravity flow column chromatography, as described previously, [19]. Briefly, the day before the assay, cells were labeled with 0,5 µCi of [myo-2-^3H]inositol (17 Ci/mmol) for 18–20 hours in serum-free, inositol-free DMEM containing 20 mM HEPES buffer, pH 7.4, and 0.5% (w/v) Albumax I. The day of the assay, media was replaced with serum-free, inositol-free DMEM containing 25 mM LiCl and cells stimulated for 30 min with the indicated agonists. After removal of the medium, cells were lysed with 10 mM formic acid and lysates were applied onto an anion exchange AG 1X-8 column, formate form, 200–400 mesh. The total IP fraction was then eluted with 2 M ammonium formate/formic acid buffer at pH 5 and radioactivity determined by liquid scintillation counting. Rescue experiments were performed essentially as above, except for a 18 hours incubation step with 1 µΜof […] followed by its removal by washing three times with ice-cold PBS containing 1 mM MgCl2 and 0.1 mM CaCl2 before starting the experiment.
as §1
(§3) Thus, transfection conditions were adjusted to secure equivalent levels of receptor expression for WT and mutants as previously described, [17], [19]. […] All the experiments were conducted within this range of receptor expression, if not specified differently.

[3] = target: T2, E129V mutant human TP receptor (Homo sapiens, UniProt P21731, E129V); assay: BRET2 measurement of Gq protein activation, E129V mutant; format: cell-based; details: HEK293 cells; for EC50: E129V, Gαq-Rluc8/GFP10-Gγ2/Gβ1, 2 min ligand, value ±%CV; for Activity ratio (EC50 WT over EC50 E129V), BRET: WT vs E129V
T2 construct: expressed in transfected cells; host or cells: HEK293
T2 sequence (P21731 1-343 E129V): T1 sequence (P21731 1-343) with E129V
Experimental: as §1

[4] = target: T1, WT human TP receptor; assay: Total inositol phosphate (IP) accumulation, WT receptor; format: cell-based; details: HEK293 cells; for Pharmacodynamic behaviour in total IP assay: SQ29,548 in absence or presence of Gαq overexpression
Experimental: as §2, §1

[5] = target: T2, E129V mutant human TP receptor; assay: [3H]SQ29,548 radioligand binding (mixed-type and heterologous competition), E129V mutant; details: HEK293 cells; for Ki: E129V, competition vs 1 nM [3H]SQ29,548, 25°C 30 min, value ±%CV; for Affinity ratio (Ki WT over Ki E129V): WT vs E129V
Experimental: as §2, §1, §3

[6] = target: T2, E129V mutant human TP receptor; assay: Total inositol phosphate (IP) accumulation, E129V mutant; format: cell-based; details: HEK293 cells; for EC50 / Emax, total IP / Pharmacodynamic behaviour in total IP assay: E129V; for Activity ratio (EC50 WT over EC50 E129V), total IP: WT vs E129V; for Pharmacodynamic behaviour in total IP assay: SQ29,548 in absence or presence of Gαq overexpression
Experimental: as §2, §1

[7] = target: T3, double mutant E129V/E240V of human TP receptor (Homo sapiens, UniProt P21731, E129V/E240V); assay: Total inositol phosphate (IP) accumulation, E129V/E240V double mutant, rescue with SQ29,548; format: cell-based; details: cells exposed to 1 µM for 18 hours, removed by washing, then 1 µM U46619 for 30 min
T3 construct: expressed in transfected cells; host or cells: HEK293
T3 sequence (P21731 1-343 E129V/E240V): T1 sequence (P21731 1-343) with E129V, E240V
Experimental: Receptor expression and functional activity were monitored 48 hours after transfection. […] Heterologous competition studies involved concentrations of the indicated unlabeled ligands extending from 0.1 nM to 30 µM. After 30 min incubation at 25 °C, the reaction was stopped by aspiration of the medium, cells were washed with ice-cold PBS containing 0.2% (w/v) BSA and lysed in 0.5 N NaOH. Radioactivity was measured by liquid scintillation counting. Binding data were analyzed as described in Data and Statistical Analysis. Quantification of the total labeled inositol phosphates (IP) accumulation was performed using a conventional gravity flow column chromatography, as described previously, [19]. […] The total IP fraction was then eluted with 2 M ammonium formate/formic acid buffer at pH 5 and radioactivity determined by liquid scintillation counting. […]
All average results are presented as mean±S.E. When indicated, ANOVA followed by post-hoc test for multiple comparisons was performed. Data from radioligand binding were evaluated by a nonlinear, least-squares curve-fitting procedure using GraphPad Prism version 4, implemented with the n-ligand m-binding site model, as described in the LIGAND computer program. Concentration-response curves were evaluated using Prism 4, which use the four parameters logistic model as described in the ALLFIT program. […]

[8] = 30 min stimulation, no Gαq overexpression, value ±%CV
[9] = Gαq overexpression (5x), 30 min

SMILES | EC50 [1] [nM] | Emax, agonist-induced BRET [1] | Ki [2] [µM] | EC50 [3] [nM] | Activity ratio (EC50 WT over EC50 E129V), BRET [3] | Emax, total IP [4, 8] [dpm/well] | EC50 ([4]; 30 min stimulation, value ±%CV) [nM] | Ki [5] [nM] | Affinity ratio (Ki WT over Ki E129V) [5] | EC50 ([6]; 30 min stimulation, value ±%CV) [nM] | Emax, total IP ([6]; 30 min stimulation, value ±%CV) [dpm/wel] | Activity ratio (EC50 WT over EC50 E129V), total IP [6] | EC50 [4, 9] [nM] | Emax, total IP [4, 9] [dpm/well] | Pharmacodynamic behaviour in total IP assay [4] | EC50 [6, 9] [nM] | Emax, total IP [6, 9] [dpm/well] | Emax, total IP ([6]; no Gαq overexpression, 30 min) [dpm/well] | Pharmacodynamic behaviour in total IP assay [6] | Functional rescue of double mutant receptor activity [7]
CCCCC[C@H](O)/C=C/[C@H]1[C@H](O)CC(=O)[C@H]1C/C=C\CCCC(=O)O [8-isoPGE2, 8-iso Prostaglandin E2] | 1980 ± 72 | −0.02±42 | 2.916 ± 0.015 | 485 ± 46 | 4.1 | 5087±21 | 1160 ± 72 | 547.6 ± 2 | 5.3 | 95.9 ± 60 | 12201±5 | 12.0 | – | – | – | – | – | – | – | –
CCCCC[C@H](O)/C=C/[C@@H]1[C@H](C/C=C\CCCC(=O)O)[C@@H](O)C[C@H]1O [8-isoPGF2α, 8-iso Prostaglandin F2α] | 3940 ± 48 | −0.05±9 | 12.93 ± 0.019 | 404 ± 31 | 9.7 | 6744±42 | 4000 ± 68 | 2908 ± 11 | 4.4 | 493 ± 53 | 15287±7 | 8.1 | – | – | – | – | – | – | – | –
O=C(O)CCCC=CCC1C2CCC(O2)C1C=CC(O)COc1ccc(I)cc1 (stereo not drawn) [I-BOP, [1S-[1α,2α(Z),3β(1E,3S*),4α]]-7-[3-[3-hydroxy-4-(4-iodophenoxy)-1-butenyl]-7-oxabicyclo[2.2.1]hept-2-yl]-5-heptenoic acid] | 13 ± 27 | −0.07±5 | 0.0243 ± 0.018 | 3.96 | – | 13099±14 | 25.1 ± 65 | 3.9 | – | 2.99 | 17156±8 | – | – | – | – | – | – | – | – | –
CCCCC[C@H](O)/C=C/C1CC2CC(C1C/C=C\CCCC(=O)O)C2(C)C (stereo partly drawn) [PTA2, 9α,11α-(dimethyl)methylene-15S-hydroxy-11α-deoxy-11α-methylene-thromba-5Z,13E-dien-1-oic acid] | – | – | 12.1 | – | – | 5856 | – | 4840 | – | – | – | – | 1450 | 19670 | very weak partial agonist | 747 | 26642 | 19423 | much stronger agonist | –
O=C(O)CCC/C=C\C[C@@H]1[C@H](CNNC(=O)Nc2ccccc2)[C@H]2CC[C@@H]1O2 [SQ29,548, [1S-[1α,2α(Z),3α,4α]]-7-[3-[[2-[(phenylamino)carbonyl]-hydrazino]methyl]-7-oxabicyclo[2.2.1]hept-2-yl]-5-heptenoic acid] | – | – | – | – | – | – | – | – | – | – | – | – | – | – | pure antagonist | – | – | – | pure antagonist | able to rescue double mutant receptor functional activity, albeit not completely
